Assay results: patent US20250169495A1, “COMPOSITIONS AND METHODS FOR CONTROLLING DROSOPHILA FLIES” (Rutgers, The State University of New Jersey, priority 2023, published 2025)

Tests used:
Assay type in all cases: in vivo
[1] = test system: Drosophila suzukii adults; assay: Multiple choice bioassay #2: known and putative repellents; details: 50 μL neat; six traps per arena; 24 h; n=6
Method: Within each arena, six gated traps were positioned randomly in a circle (40 cm diameter) at equal distance with each trap 20 cm apart along the circumference. Each gated trap contained ˜5 g of store-bought organic blueberry fruit (n=5), as described elsewhere herein. One of the six traps served as a control (with blueberry fruit only) and the remaining five traps had one of the repellents added to the blueberry fruit. Each volatile (50 μL, neat) was released from a 1 mL polyethylene vial with a piece of cotton placed inside each trap (control traps had vials with cotton but without the volatile). A vial with a cotton ball soaked with deionized water was placed in the middle of the arena. Roughly 150 D. suzukii adults (1:1 male: female ratio) were released inside each arena and the number and sex of flies inside treatment and control traps was recorded after 24 h. The experiment started at 1:00 p.m., was replicated 6 times, and was done in a laboratory under 22±2° C., 55±5% RH, 16:8 (L:D) h. Data from multiple choice assays on the percent of male and female D. suzukii adults responding to each volatile were compared using ANOVA (Minitab version 17; Minitab Inc., State College, PA, USA). The ANOVA model included treatment, sex, and their interaction as fixed factors and block (replicate) as a random factor. A multi-comparison Tukey test (Minitab) was used to determine differences among treatments. Percent data were arcsine square-root transformed prior to ANOVA. Pairwise choice assays were analyzed using G-tests with William's correction. Non-responders were excluded from the statistical analyses.

Drosophila suzukii = assay: Field cage experiments, cultivated highbush blueberry bushes
Method: Field cage experiments were conducted from June until July using highbush blueberries (V. corymbosum var. ‘Bluecrop’). The studies were carried out in 5.5 m long×2.7 m tall cages, constructed with a PVC pipe frame covered with No-See-Um mesh (Quest Outfitters Inc., Sarasota, FL, USA) (FIG. 6C). Cages were placed in separate rows within a blueberry field, with bushes spaced approx. 0.76 m apart within the rows and 3.05 m between rows. Each row contained two cages at least 9 m in distance. To avoid interference between treatments, alternate cages were used during testing, ensuring that no adjacent cages contained sachets simultaneously. Two, 3-m rebar poles were used to reinforce the mesh on the long sides of each cage as well as 10 cm long garden staples to hold mesh flush to the ground, while the shorter ends were secured with clips to allow access to the cage. Each cage contained five blueberry bushes approx. 1.5 m in height. Sachets containing ethyl butanoate, ethyl (E)-but-2-enoate, or 2-pentylfuran were prepared as described before. To test the effects of the repellents on the treated (focal) bush and in neighboring bushes at various distances, two sachets of the same compound were hung from one of the end bushes in each cage (FIG. 6D). There were four treatments: 1) ethyl butanoate, 2) ethyl (E)-but-2-enoate, 3) 2-pentylfuran, and 4) control (no repellent). Each treatment was replicated four times, with each cage assigned to a single treatment, resulting in a total of 16 cages. Twenty-four hours after deploying the sachets, 120 flies (approximately 60 males and 60 females) were released into each cage at 18:00 hrs (N=120 flies×4 treatments×4 replicates=1,920 total flies). To ensure even distribution within the cages, 30 flies were released at four equidistant points between the bushes. A pre-sampling of the berries, conducted before the flies were released, confirmed the absence of any infestation. Berries were then collected 1-, 2-, and 3-days post-treatment. From every other bush (starting at the focal bush) in the cage, 50 berries from the top half and 50 from the bottom half were collected into two separate 236.6 mL deli containers lined with two cotton pads. From each berry sample, a random subsample of 10 berries were examined and egg counts recorded before being returned to the original container. The blueberries were incubated on a light bench in the laboratory for up to two weeks, as previously described, and adult emergence was recorded. The sachets were weighed before deployment and 3 days after deployment to measure the emission rates of each compound. Field cage data for both oviposition and adult emergence were non-normal, so non-parametric tests were applied using R statistical software. The effects of ‘Treatment’ (untreated control, ethyl butanoate, ethyl (E)-but-2-enoate, and 2-pentylfuran) across ‘Bush Position’ (focal, center, end) and ‘Day After Treatment’ (1, 2, 3 DAT) were assessed using the Kruskal-Wallis Test. When significant Treatment effects were found, post-hoc separation was performed using Dunn's Test.

[2] = test system: Drosophila suzukii adults; assay: Multiple choice bioassay #1: anthracnose-induced volatiles, gated traps with blueberries; details: 50 μL neat volatile added to blueberry fruit in gated trap; 15 traps per arena; 24 h; n=4
Method: These bioassays were done in arenas that consisted of a dome cage (60 cm width×60 cm length x 60 cm height; BugDorm-2120 Insect tent; shop.bugdorm.com) (FIG. 1A). Within each arena, 15 gated traps were positioned randomly in a circle (40 cm diameter) at equal distance with each trap 8.4 cm apart along the circumference (FIG. 1A). Each gated trap consisted of 50 mL polystyrene tubes (Fisher Scientific, Nazareth, PA, USA) covered with aluminum foil and sealed with Parafilm®, with a 4 mm-diameter hole in the center of the Parafilm to provide an entrance to flies. All traps had equal quantities (ca. 5 g) of store-bought organic blueberry fruit (n=5); fruit were sterilized with bleach prior to the study (10% bleach for 2 min, rinsed three times in distilled water). One of the 15 traps served as a control (with blueberry fruit only) and the remaining 14 traps had one of the anthracnose volatile compounds added to the blueberry fruit. The 14 compounds tested were: 3-hydroxy-2-butanone, styrene, (E)-2-hexen-1-ol, ethyl 3-hydroxy-3-methylbutanoate, 2-methyl-1-butanol, ethyl propanoate, 2-methyl-1-propanol, diethyl carbonate, 2-methylpropanal, 3-methyl-1-butanol, ethyl 2-methylpropanoate, ethyl butanoate, ethyl (E)-but-2-enoate, and 3-methyl-3 buten-1-ol (see Results). Each volatile (50 μL, neat) was released from a 1 mL polyethylene vial (Globe Scientific Inc., Paramus, NJ, USA) with a piece of cotton placed inside each trap (control traps had vials with cotton but without the volatile). A vial with a cotton ball soaked with deionized water was placed in the middle of the arena to provide flies with water during the experiment. Roughly 300 D. suzukii adults (1:1 male: female ratio) were released inside each arena and the number and sex of flies inside treatment and control traps was recorded after 24 h. The experiment started at 1:00 p.m., was replicated 4 times, and was done in a laboratory under 22+2° C., 55+5% RH, 16:8 (L:D) h.
Data from multiple choice assays on the percent of male and female D. suzukii adults responding to each volatile were compared using ANOVA (Minitab version 17; Minitab Inc., State College, PA, USA). The ANOVA model included treatment, sex, and their interaction as fixed factors and block (replicate) as a random factor. A multi-comparison Tukey test (Minitab) was used to determine differences among treatments. Percent data were arcsine square-root transformed prior to ANOVA. Pairwise choice assays were analyzed using G-tests with William's correction. Non-responders were excluded from the statistical analyses.

Structure (SMILES)	strength of repellency among the five repellents (rank) [1]	egg counts (Drosophila suzukii; 1 DAT, central bush)	egg counts (Drosophila suzukii; 1 DAT, end bush)	adult emergence (Drosophila suzukii; 3 DAT, center bush)	adult emergence (Drosophila suzukii; 3 DAT, focal bush)	number of flies captured relative to the control [2]	adult emergence (Drosophila suzukii; 1 DAT, center bush)	adult emergence (Drosophila suzukii; 1 DAT, end bush)	adult emergence (Drosophila suzukii; 2 DAT, center bush)	egg counts (Drosophila suzukii; 2 DAT, center bush)	adult emergence (Drosophila suzukii; 2 DAT, end bush)	egg counts (Drosophila suzukii; 2 DAT, end bush)	egg counts (Drosophila suzukii; 3 DAT, center bush)	adult emergence (Drosophila suzukii; 3 DAT, end bush)	egg counts (Drosophila suzukii; 3 DAT, end bush)	egg counts (Drosophila suzukii; 3 DAT, focal bush)
CCCCCc1ccco1 [2-pentylfuran, reference compound]	the least repellent	lower	fewest eggs	lowest adult emergence	lowest adult emergence	–	–	–	–	–	–	–	–	–	–	–
C/C=C/C(=O)OCC [ethyl (E)-but-2-enoate]	the most repellent	–	fewest eggs	lowest adult emergence	lowest adult emergence	reduced the number of flies captured relative to the control	fewest adults emerge	fewest adults emerge	fewest adults emerge	lowest egg counts	fewest adults emerge	lowest egg counts	lowest egg count	significantly different compared to the other repellents	lowest egg count	lowest egg count
CCCC(=O)OCC [ethyl butanoate]	–	–	–	–	–	reduced the number of flies captured relative to the control	–	–	–	–	–	–	–	–	–	–
